Here are results for one compound from EP1056778B1, “G PROTEIN-COUPLED RECEPTOR ANTAGONISTS” (priority 1998, dated 1999).

For this assay, the target named is T1, CCKAR (Rattus norvegicus, UniProt P30551).
T1 construct: expressed in transfected cells; host or cells: CHO cells
T1 sequence (P30551 1-444): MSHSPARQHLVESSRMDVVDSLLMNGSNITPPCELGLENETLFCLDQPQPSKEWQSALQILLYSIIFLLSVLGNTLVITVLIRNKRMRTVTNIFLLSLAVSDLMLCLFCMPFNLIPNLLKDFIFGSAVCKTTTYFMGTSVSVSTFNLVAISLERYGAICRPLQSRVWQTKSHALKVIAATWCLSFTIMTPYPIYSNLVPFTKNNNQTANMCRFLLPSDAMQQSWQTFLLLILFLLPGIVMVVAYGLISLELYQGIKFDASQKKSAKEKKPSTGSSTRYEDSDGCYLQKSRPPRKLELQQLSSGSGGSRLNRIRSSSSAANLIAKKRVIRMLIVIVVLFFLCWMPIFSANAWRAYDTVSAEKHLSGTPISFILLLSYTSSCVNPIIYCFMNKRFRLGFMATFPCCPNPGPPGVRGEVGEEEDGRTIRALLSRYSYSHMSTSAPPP
The assay is described as follows: Inhibition of CCK-8 evoked intracellular calcium release in CHO cells stably transfected with rat CCKAR. The assay is classed as cell-based. As to the method: The activity of peptides from the CCKAR transmembrane domain were tested in transfected CHO cells that stably express rat […] et al. (1997), J. Biol. Chem. 272: 14817-14824). Sulfated cholecystokinin octapeptide was the CCKAR agonist. Determination of intracellular calcium release was performed as described in example 1 above. None of CCKAR-derived peptides served as antagonists of chemokine receptors and none could inhibit HIV-1 infection. The activity of the antagonists in inhibiting signaling through the receptor was compared to the ability to prevent agonist binding (Table 4). Inhibition of signaling was assessed in CCK-8 evoked intracellular calcium release in FURA-2/AM treated CHO cells stably transfected with rat […], et al. (1997) J. Biol. Chem. 272:14817). Inhibition of ligand binding was measured with the use of a fluorescent agonist, rhodamine green CCK-8 (RG-CCK-8) and quantitative confocal laser scanning microscopy (Tarasova, et al. (1997) J. Biol. Chem. 272:14817). Peptides derived from the first, second, and sixth transmembrane domains inhibited CCK-induced signaling through the CCKAR receptor. […] Table 4. The activity of CCKAR-derived TM peptides in inhibition of CCK-8 -induced intracellular calcium release and RG-CCK-8 binding.

Where a SMILES comes first, the peptide text is derived from it.

Regarding `CSCC[C@H](NC(=O)[C@H](CC(C)C)NC(=O)[C@H](CC(=O)O)NC(=O)[C@H](CO)NC(=O)[C@@H](NC(=O)[C@H](C)NC(=O)[C@H](CC(C)C)NC(=O)[C@H](CO)NC(=O)[C@H](CC(C)C)NC(=O)[C@H](CC(C)C)NC(=O)[C@@H](N)Cc1ccccc1)C(C)C)C(=O)N[C@@H](CC(C)C)C(=O)N[C@@H](CS)C(=O)N[C@@H](CC(C)C)C(=O)N[C@@H](Cc1ccccc1)C(=O)N[C@@H](CS)C(=O)N[C@@H](CCSC)C(=O)N1CCC[C@H]1C(=O)N[C@@H](Cc1ccccc1)C(=O)N[C@@H](CC(N)=O)C(=O)N[C@@H](CC(C)C)C(=O)N1CCC[C@H]1C(=O)O` [CCKAR-2-1] (H-FLLSLAVSDLMLCLFCMPFNLP-OH), the “Concentration, required for inhibition of signaling” value (CCK-8-induced intracellular calcium release, CHO cells with rat CCKAR) worked out at 2 µM. For the same compound, the “potency in inhibition of ligand signaling compared with binding” value (comparison of signaling and binding, Table 4) is on record as “comparable potencies”.
